A word on the inhibition: it is the relative decrease from the control value, in per cent.

The subject of assay [1] is Mesenchymal stem cell. Briefly: Induction of adipogenesis in human bone marrow-derived mesenchymal stem cells assessed as increase in number and size of lipid droplets at 20 uM after 7 days in presence of IDX by oil red O staining based inverted microscopic method. In kind it is functional.
Assay [2] addresses T1, Peroxisome proliferator-activated receptor gamma (Homo sapiens) (UniProt P37231).
T1 sequence (whole entry): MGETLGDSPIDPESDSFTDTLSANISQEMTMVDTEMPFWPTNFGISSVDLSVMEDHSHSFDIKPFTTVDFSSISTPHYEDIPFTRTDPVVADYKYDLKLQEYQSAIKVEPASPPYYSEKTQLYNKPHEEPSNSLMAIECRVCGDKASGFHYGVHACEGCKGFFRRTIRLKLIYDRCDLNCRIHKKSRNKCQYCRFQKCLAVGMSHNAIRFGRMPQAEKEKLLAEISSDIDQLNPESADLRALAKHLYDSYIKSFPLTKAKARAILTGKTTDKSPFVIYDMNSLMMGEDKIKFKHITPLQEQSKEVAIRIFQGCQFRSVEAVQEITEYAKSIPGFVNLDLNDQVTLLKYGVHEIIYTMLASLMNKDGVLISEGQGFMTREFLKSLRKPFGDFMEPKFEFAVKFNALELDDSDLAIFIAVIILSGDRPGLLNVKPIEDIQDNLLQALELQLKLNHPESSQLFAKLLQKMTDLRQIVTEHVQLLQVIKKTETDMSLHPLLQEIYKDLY
Briefly: Transactivation of human PPARgamma expressed in African green monkey CV1 cells at 10 uM by luciferase reporter gene assay relative to control. In kind it is cell-based. For orientation: Reporter assays use an easily measured gene product as a stand-in for the process of interest.

Assay [3] deals with T2, Glucocorticoid receptor (Homo sapiens) (UniProt P04150).
T2 sequence (whole entry): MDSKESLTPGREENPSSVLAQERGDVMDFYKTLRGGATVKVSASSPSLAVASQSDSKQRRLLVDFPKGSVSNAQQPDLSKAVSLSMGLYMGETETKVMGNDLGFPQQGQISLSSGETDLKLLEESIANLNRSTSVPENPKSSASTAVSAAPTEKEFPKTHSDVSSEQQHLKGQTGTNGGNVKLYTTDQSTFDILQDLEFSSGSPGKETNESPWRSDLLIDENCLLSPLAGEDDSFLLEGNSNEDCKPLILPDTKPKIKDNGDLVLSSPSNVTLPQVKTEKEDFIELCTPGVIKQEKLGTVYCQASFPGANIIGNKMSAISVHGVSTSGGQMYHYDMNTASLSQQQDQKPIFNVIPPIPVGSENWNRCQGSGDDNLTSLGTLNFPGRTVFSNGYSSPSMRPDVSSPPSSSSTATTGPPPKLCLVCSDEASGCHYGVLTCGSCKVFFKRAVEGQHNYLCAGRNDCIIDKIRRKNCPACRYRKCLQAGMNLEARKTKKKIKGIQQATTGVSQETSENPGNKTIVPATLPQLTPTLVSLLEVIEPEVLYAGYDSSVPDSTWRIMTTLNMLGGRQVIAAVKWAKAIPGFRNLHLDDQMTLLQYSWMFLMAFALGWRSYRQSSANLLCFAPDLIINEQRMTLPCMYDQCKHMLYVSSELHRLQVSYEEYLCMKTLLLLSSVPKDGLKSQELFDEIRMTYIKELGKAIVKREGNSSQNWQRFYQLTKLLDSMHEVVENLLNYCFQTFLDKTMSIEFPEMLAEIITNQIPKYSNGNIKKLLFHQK
Briefly: Displacement of Fluormone-GS1 from human GST-tagged glucocorticoid receptor LBD at 4 uM by TR-FRET assay. A general note: TR-FRET usually uses a lanthanide donor and a delayed reading to cut background.

The subject of assay [4] is Mesenchymal stem cell. Briefly: Induction of adipogenesis in human bone marrow-derived mesenchymal stem cells assessed as increase in the production of adiponectin measured on day 7 after 48 hrs by ELISA. In kind it is functional, cell-based. On the technique in general: ELISA stands for enzyme-linked immunosorbent assay.
For assay [5], the target named is T1, Peroxisome proliferator-activated receptor gamma (Homo sapiens). Briefly: Displacement of Fluormone-Pan-PPAR Green from human GST-tagged PPARgamma LBD at 20 uM by TR-FRET assay relative to control.
Assay [6] deals with T3, Peroxisome proliferator-activated receptor delta (Homo sapiens) (UniProt Q03181).
T3 sequence (whole entry): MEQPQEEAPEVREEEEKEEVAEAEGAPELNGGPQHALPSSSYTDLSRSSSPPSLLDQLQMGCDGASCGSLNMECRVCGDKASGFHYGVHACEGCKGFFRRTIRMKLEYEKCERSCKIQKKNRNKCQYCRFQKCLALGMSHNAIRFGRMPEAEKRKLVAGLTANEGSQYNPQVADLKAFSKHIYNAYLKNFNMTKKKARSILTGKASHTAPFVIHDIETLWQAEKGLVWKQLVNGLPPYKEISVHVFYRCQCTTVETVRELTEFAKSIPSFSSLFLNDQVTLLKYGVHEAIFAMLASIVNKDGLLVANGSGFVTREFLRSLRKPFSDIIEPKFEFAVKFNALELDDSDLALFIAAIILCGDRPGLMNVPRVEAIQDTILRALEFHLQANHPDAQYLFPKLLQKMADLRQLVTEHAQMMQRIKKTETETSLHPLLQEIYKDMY
Briefly: Displacement of Fluormone-Pan-PPAR Green from human GST-tagged PPARdelta LBD at 20 uM by TR-FRET assay relative to control.

The subject of assay [7] is Mesenchymal stem cell. Briefly: Induction of adipogenesis in human bone marrow-derived mesenchymal stem cells assessed as increase in adiponectin production at 20.4 uM after 7 days in presence of IDX. In kind it is functional, cell-based.

Active and inactive are the calls of the source. The rule behind the calls is not given here.

Regarding `CNC(=O)[C@H]1O[C@@H](n2cnc3c(NCc4cccc(I)c4)ncnc32)[C@H](O)[C@@H]1O` [IB-MECA], the result in the assay on Mesenchymal stem cell [1] and with Mesenchymal stem cell [7] was Active. Moreover, the values for the Activity (in assay [2]; in the assay with Mesenchymal stem cell [4]) were 29.9% and “Dose-dependent effect”, respectively. For the same compound, the inhibition entry in assay [3] is “inactive”. The inhibition in assay [5] was 22.2%; in assay [6] it was 48.3%.

For the origin of these results see ChEMBL document CHEMBL4017496 (J Med Chem, 2017).
